Assays:
PXR LBD = target: T1, PXR LBD (Homo sapiens, UniProt O75469); test: TR-FRET PXR LBD NCoR recruitment and release assays; assay type: biochemical; conditions: TR-FRET in the presence of 1 μM SPA70
T1 construct: GST-PXR LBD protein (cat. # PV4841) were purchased from Thermo Fisher Scientific; purchased Thermo Fisher Scientific PV4841
T1 sequence (O75469 146-433 limits assumed): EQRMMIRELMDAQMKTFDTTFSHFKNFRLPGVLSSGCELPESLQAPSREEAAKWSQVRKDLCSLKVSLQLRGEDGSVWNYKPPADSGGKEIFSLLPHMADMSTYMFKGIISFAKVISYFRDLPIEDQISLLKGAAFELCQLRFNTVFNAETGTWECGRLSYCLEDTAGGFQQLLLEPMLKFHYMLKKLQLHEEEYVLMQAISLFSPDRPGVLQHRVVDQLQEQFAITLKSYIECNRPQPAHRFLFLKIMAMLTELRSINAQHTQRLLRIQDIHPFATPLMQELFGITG
Protocol: The TR-FRET PXR LBD NCoR recruitment assay was similarly performed, but with 500 nM FAM-NCoR peptide. Data were normalized using equations (2) and (3) with 10 μM SPA70 in place of T0901317 as the control. For the NCoR release assay, all wells contained 1 μM SPA70 to induce PXR LBD interaction with NCoR, and dose responses of agonists were used to disrupt the PXR LBD/SPA70/NCoR complex. In the release assay, 1 μM SPA70 alone served as the 100% control, and DMSO alone served as the 0% control. NCoR release assay wells contained 0.4% DMSO due to the two-compound addition.

human PXR = target: T2, human PXR (Homo sapiens, UniProt O75469); test: PXR transactivation assay (CYP3A4-luciferase reporter)
T2 sequence (O75469 1-434): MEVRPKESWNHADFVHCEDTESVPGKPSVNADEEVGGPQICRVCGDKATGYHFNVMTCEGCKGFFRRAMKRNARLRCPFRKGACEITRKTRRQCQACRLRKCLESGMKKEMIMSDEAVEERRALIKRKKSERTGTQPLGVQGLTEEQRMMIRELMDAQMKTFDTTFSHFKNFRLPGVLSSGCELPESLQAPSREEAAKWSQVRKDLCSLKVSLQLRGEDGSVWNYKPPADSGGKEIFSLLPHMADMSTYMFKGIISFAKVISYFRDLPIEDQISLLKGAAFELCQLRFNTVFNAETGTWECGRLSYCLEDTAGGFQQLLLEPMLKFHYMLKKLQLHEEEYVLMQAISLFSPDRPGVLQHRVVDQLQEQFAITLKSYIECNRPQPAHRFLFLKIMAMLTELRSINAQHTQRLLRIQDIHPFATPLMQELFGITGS
Protocol: Assays were performed similarly as previously described with minor modifications ([30–32]). HepG2 cells (7.5 × 10^5/well) were plated in six-well tissue culture-treated plates. The following day, cells were co-transfected with pGL3-CYP3A4-luc (2 μg/well), pRL-CMV (200 ng/well) and 100 ng/well of either empty vector (pcDNA3), pcDNA3-FLAG-PXR, pCMV6-mPXR or pGL4.53-PGK-PXR using Lipofectamine 3000 (Thermo Fisher Scientific). Twenty-four hours after transfection, cells were trypsinized and suspended in phenol red-free DMEM (Thermo Fisher Scientific) supplemented with 5% charcoal/dextran-treated FBS (HyClone), and 1 × 10^4 cells/well in 25 μl media were added to white 384-well plates. […] After 24 h, the Dual-Glo Luciferase Assay System (Promega) and EnVision microplate reader (PerkinElmer) were used to measure firefly and Renilla luciferase activities. CMV-driven Renilla luciferase was used as an indicator of general transcriptional modulation by the test compounds and is plotted as fold change (FC) relative to DMSO controls. Assays utilizing pGL4.54[luc2/TK], pGL4.53[luc2/PGK], or pGL4.13[luc2/SV40] were similarly performed and normalized. For the PXR-responsive CYP3A4-luciferase reporter, the measured relative light units (RLU) were normalized for each well using equation (1),
RLUT0901317 represents the measured RLU from wells containing 1 μM T0901317. For mPXR assays, 5 μM PCN was used in place of T0901317.

Structure (SMILES): Cc1sc2c(c1C)C(c1ccc(Cl)cc1)=N[C@@H](CC(=O)OC(C)(C)C)c1nnc(C)n1-2 [JQ1, (+)-JQ1]
- inhibition of SPA70-mediated NCoR recruitment (NCoR release) (PXR LBD): inhibited SPA70-mediated NCoR recruitment
- activation of CYP3A4-luciferase reporter with PXR expressed from a PGK promoter (human PXR; HepG2, 24 h, PGK-driven PXR): retained activation of the CYP3A4-luciferase reporter
- activation of PXR-responsive CYP3A4-luciferase reporter (human PXR; human): activated the CYP3A4-luciferase reporter with potency comparable to that of the prototypical PXR agonist rifampicin (Figure 2A) but with slightly reduced efficacy

— PMC10899790, “A bromodomain-independent mechanism of gene regulation by the BET inhibitor JQ1: direct activation of nuclear receptor PXR” (Nucleic Acids Research, 2023)
